# Assay results as given in patent US8288419B2, “Aminopyrazole derivatives” (Actelion Pharmaceuticals, Ltd, priority 2007, dated 2012).
# Target: T1, recombinant human ALX receptor (Homo sapiens, UniProt P25090)
# T1 construct: expressed in transfected cells; host or cells: HEK293 (HEK293-hALXR-Gα16)
# T1 sequence (P25090 1-351): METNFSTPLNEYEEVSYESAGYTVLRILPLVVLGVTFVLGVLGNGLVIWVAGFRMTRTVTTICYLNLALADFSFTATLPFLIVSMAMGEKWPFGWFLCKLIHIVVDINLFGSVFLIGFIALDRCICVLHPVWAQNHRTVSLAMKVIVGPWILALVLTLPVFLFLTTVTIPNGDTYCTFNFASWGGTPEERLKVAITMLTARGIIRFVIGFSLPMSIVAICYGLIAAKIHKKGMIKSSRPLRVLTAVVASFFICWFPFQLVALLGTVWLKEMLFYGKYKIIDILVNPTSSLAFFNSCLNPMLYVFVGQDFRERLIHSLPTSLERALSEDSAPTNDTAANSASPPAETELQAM
# Assay: Intracellular calcium measurements (FLIPR), ALX receptor agonistic activity
# Assay type: cell-based
# Details: HEK293-hALXR-Gα16 cells, Fluo-4 calcium fluorescence, normalized to 10 nM WKYMVm
# Protocol: The ALX receptor agonistic activity of the compounds of formula (I) is determined in accordance with the following experimental method.
# Intracellular Calcium Measurements:
# Cells expressing recombinant human ALX receptor and the G-protein Gα16 (HEK293-hALXR-Gα16) were grown to 80% confluency in Growing Medium (GM). […] Stock solutions of test compounds were made up at a concentration of 10 mM in DMSO, and serially diluted in AB to concentrations required for activation dose response curves. WKYMVm (Phoenix Peptides) was used as a reference agonist. A FLIPR384 instrument (Molecular Devices) was operated according to the manufacturer's standard instructions, adding 4 μl of test compound dissolved at 10 mM in DMSO and diluted prior to the experiment in assay buffer to obtain the desired final concentration. Changes in fluorescence were monitored before and after the addition of test compounds at lex=488 nm and lem=540 nm. Emission peak values above base level after compounds addition were exported after base line subtraction. Values were normalized to high-level control (WKYMVm compound, 10 nM final concentration) after subtraction of the base line value (AB addition). The program XLlfit 3.0 (IDBS) was used to fit the data to a single site dose response curve of the equation (A+((B−A)/(1+((C/x)^D)))) and to calculate the EC50 values.
row,Compound,EC50 [nM]
1,"CC(=O)c1cncc(Cn2cc(NC(=O)OCc3ccccc3Cl)cn2)c1 [Example 382, [1-(5-Acetyl-pyridin-3-ylmethyl)-1H-pyrazol-4-yl]-carbamic acid 2-chloro-benzyl ester]",401
2,"CC(=O)c1csc(Cn2cc(NC(=O)/C=C/c3ccc(C(F)(F)F)cc3)cn2)n1 [Example 389, (E)-N-[1-(4-Acetyl-thiazol-2-ylmethyl)-1H-pyrazol-4-yl]-3-(4-trifluoromethyl-phenyl)-acrylamide]",79
3,"CC(=O)c1ccc(Cn2ccc(NC(=O)c3nc(CN)oc3-c3ccccc3)n2)o1 [Example 390, 2-Aminomethyl-5-phenyl-oxazole-4-carboxylic acid [1-(5-acetyl-furan-2-ylmethyl)-1H-pyrazol-3-yl]-amide]",727
4,"CC(=O)c1ccc(Cn2ccc(NC(=O)c3nc(C)oc3-c3cccc(OC(F)(F)F)c3)n2)s1 [Example 392, 2-Methyl-5-(3-trifluoromethoxy-phenyl)-oxazole-4-carboxylic acid [1-(5-acetyl-thiophen-2-ylmethyl)-1H-pyrazol-3-yl]-amide]",237
5,"CC(=O)c1ccc(Cn2cc(NC(=O)c3nc(C)sc3-c3cccc(C)c3)cn2)s1 [Example 395, 2-Methyl-5-m-tolyl-thiazole-4-carboxylic acid [1-(5-acetyl-thiophen-2-ylmethyl)-1H-pyrazol-4-yl]-amide]",170
6,"CC(=O)c1ccc(Cn2cc(NC(=O)c3ncoc3-c3cccc(C#N)c3)cn2)s1 [Example 397, 5-(3-Cyano-phenyl)-oxazole-4-carboxylic acid [1-(5-acetyl-thiophen-2-ylmethyl)-1H-pyrazol-4-yl]-amide]",23
7,"CC(=O)c1ccc(Cn2cc(NC(=O)c3nc(C4CC4)oc3-c3ccccc3)cn2)s1 [Example 401, 2-Cyclopropyl-5-phenyl-oxazole-4-carboxylic acid [1-(5-acetyl-thiophen-2-ylmethyl)-1H-pyrazol-4-yl]-amide]",49
8,"CC(=O)c1cc(Cn2cc(NC(=O)OCc3ccccc3Cl)cn2)ccn1 [Example 407, [1-(2-Acetyl-pyridin-4-ylmethyl)-1H-pyrazol-4-yl]-carbamic acid 2-chloro-benzyl ester]",58
9,"CC(=O)c1cc(Cn2cc(NC(=O)c3ncoc3-c3ccccc3)cn2)cs1 [Example 408, 5-Phenyl-oxazole-4-carboxylic acid [1-(5-acetyl-thiophen-3-ylmethyl)-1H-pyrazol-4-yl]-amide]",83
10,"CC(=O)c1nc(Cn2cc(NC(=O)OCc3ccccc3Cl)cn2)cs1 [Example 409, [1-(2-Acetyl-thiazol-4-ylmethyl)-1H-pyrazol-4-yl]-carbamic acid 2-chloro-benzyl ester]",805
11,"CC(=O)c1ccc(Cn2cc(NC(=O)c3ncoc3-c3ccnc(F)c3)cn2)o1 [Example 412, 5-(2-Fluoro-pyridin-4-yl)-oxazole-4-carboxylic acid [1-(5-acetyl-furan-2-ylmethyl)-1H-pyrazol-4-yl]-amide]",179
12,"CS(=O)(=O)c1ccc(Cn2cc(NC(=O)c3ncoc3-c3ccccc3)cn2)o1 [Example 413, 5-Phenyl-oxazole-4-carboxylic acid [1-(5-methanesulfonyl-furan-2-ylmethyl)-1H-pyrazol-4-yl]-amide]",486
13,"COCc1nc(C(=O)Nc2cnn(Cc3ccc(C(C)=O)o3)c2)c(-c2ccccc2)o1 [Example 416, 2-Methoxymethyl-5-phenyl-oxazole-4-carboxylic acid [1-(5-acetyl-furan-2-ylmethyl)-1H-pyrazol-4-yl]-amide]",61
14,"CC(=O)c1ccc(Cn2cc(NC(=O)c3ncoc3-c3cccc(C(F)(F)F)n3)cn2)o1 [Example 419, 5-(6-Trifluoromethyl-pyridin-2-yl)-oxazole-4-carboxylic acid [1-(5-acetyl-furan-2-ylmethyl)-1H-pyrazol-4-yl]-amide]",66
15,"CC(=O)c1ccc(Cn2cc(NC(=O)c3ncoc3-c3ccno3)cn2)o1 [Example 420, 5-Isoxazol-5-yl-oxazole-4-carboxylic acid [1-(5-acetyl-furan-2-ylmethyl)-1H-pyrazol-4-yl]-amide]",388
16,"CC(=O)c1ccc(Cn2cc(NC(=O)c3nc(C(C)C)oc3-c3ccccc3)cn2)o1 [Example 424, 2-Isopropyl-5-phenyl-oxazole-4-carboxylic acid [1-(5-acetyl-furan-2-ylmethyl)-1H-pyrazol-4-yl]-amide]",114
17,"CC(=O)c1ccc(Cn2cc(NC(=O)c3nc(Cc4ccccc4)oc3-c3ccccc3)cn2)o1 [Example 432, 2-Benzyl-5-phenyl-oxazole-4-carboxylic acid [1-(5-acetyl-furan-2-ylmethyl)-1H-pyrazol-4-yl]-amide]",200
18,"CC(=O)c1cnc(Cn2cc(NC(=O)c3ncoc3-c3ccccc3)cn2)s1 [Example 435, 5-Phenyl-oxazole-4-carboxylic acid [1-(5-acetyl-thiazol-2-ylmethyl)-1H-pyrazol-4-yl]-amide]",445
19,"CC(=O)c1ncc(Cn2cc(NC(=O)c3ncoc3-c3ccccc3)cn2)s1 [Example 437, 5-Phenyl-oxazole-4-carboxylic acid [1-(2-acetyl-thiazol-5-ylmethyl)-1H-pyrazol-4-yl]-amide]",99
20,"CC(=O)c1ncc(Cn2ccc(NC(=O)c3ncoc3-c3ccccc3)n2)o1 [Example 440, 5-Phenyl-oxazole-4-carboxylic acid [1-(2-acetyl-oxazol-5-ylmethyl)-1H-pyrazol-3-yl]-amide]",143
21,"CC(=O)c1csc(Cn2cc(NC(=O)OCc3ccccc3Cl)cn2)c1 [Example 442, [1-(4-Acetyl-thiophen-2-ylmethyl)-1H-pyrazol-4-yl]-carbamic acid 2-chloro-benzyl ester]",94
22,"CC(=O)c1csc(Cn2ccc(NC(=O)c3ncoc3-c3cccc(N(C)C)c3)n2)n1 [Example 449, 5-(3-Dimethylamino-phenyl)-oxazole-4-carboxylic acid [1-(4-acetyl-thiazol-2-ylmethyl)-1H-pyrazol-3-yl]-amide]",182
23,"CC(F)(F)c1csc(Cn2ccc(NC(=O)c3ncoc3-c3ccccc3)n2)n1 [Example 461, 5-Phenyl-oxazole-4-carboxylic acid {1-[4-(1,1-difluoro-ethyl)-thiazol-2-ylmethyl]-1H-pyrazol-3-yl}-amide]",1090
24,"CC(=O)CCCCn1cc(NC(=O)OCc2nc3ccccc3s2)cn1 [Example 462, [1-(5-Oxo-hexyl)-1H-pyrazol-4-yl]-carbamic acid benzothiazol-2-ylmethyl ester]",43
25,"CC(=O)c1cnc(Cn2ccc(NC(=O)c3ncoc3-c3ccccc3)n2)o1 [Example 465, 5-Phenyl-oxazole-4-carboxylic acid [1-(5-acetyl-oxazol-2-ylmethyl)-1H-pyrazol-3-yl]-amide]",73
26,"CC(=O)c1nc(Cn2cc(NC(=O)OCc3ccccc3Cl)cn2)co1 [Example 466, [1-(2-Acetyl-oxazol-4-ylmethyl)-1H-pyrazol-4-yl]-carbamic acid 2-chloro-benzyl ester]",34
